From PMC7473772 (eLife, 2020)
Substitutions are numbered along the chain they refer to. Where “and” joins values, the source holds several entries; their conditions need not be identical. Identical values can stand only once.

What was measured:
[1] = target: tbaqp1-2-3 null cells expressing TbAQP2 WT or Trp/Met mutants (Trypanosoma brucei brucei, UniProt Q6ZXT3); assay type: cell-based; details: + AQP2 WT
[2] = target: T1, tbaqp1-2-3 null cells expressing TbAQP2 WT or Trp/Met mutants (Trypanosoma brucei brucei, UniProt Q6ZXT3, L84M); assay type: cell-based; details: AQP2 mutant L84M
T1 sequence (Q6ZXT3 1-312 L84M): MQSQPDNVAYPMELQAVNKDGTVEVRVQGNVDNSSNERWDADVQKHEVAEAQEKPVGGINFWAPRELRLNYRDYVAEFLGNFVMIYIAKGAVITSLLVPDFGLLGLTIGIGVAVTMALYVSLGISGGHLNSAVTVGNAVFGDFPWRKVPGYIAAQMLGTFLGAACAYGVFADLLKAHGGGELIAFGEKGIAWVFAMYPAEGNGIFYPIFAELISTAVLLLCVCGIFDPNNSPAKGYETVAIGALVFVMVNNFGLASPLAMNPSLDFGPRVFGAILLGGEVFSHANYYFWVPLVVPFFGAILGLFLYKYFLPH

[3] = target: T2, tbaqp1-2-3 null cells expressing TbAQP2 WT or Trp/Met mutants (Trypanosoma brucei brucei, UniProt Q6ZXT3, L118W/L84W); assay type: cell-based; details: AQP2 mutant L84W/L118W
T2 sequence (Q6ZXT3 1-312 L84W/L118W): T1 sequence (Q6ZXT3 1-312 L84M) with M84W, L118W

[4] = target: T3, tbaqp1-2-3 null cells expressing TbAQP2 WT or Trp/Met mutants (Trypanosoma brucei brucei, UniProt Q6ZXT3, L218W); assay type: cell-based; details: AQP2 mutant L218W
T3 sequence (Q6ZXT3 1-312 L218W): T1 sequence (Q6ZXT3 1-312 L84M) with M84L, L218W

[5] = target: T4, tbaqp1-2-3 null cells expressing TbAQP2 WT or Trp/Met mutants (Trypanosoma brucei brucei, UniProt Q6ZXT3, L118M); assay type: cell-based; details: AQP2 mutant L118M
T4 sequence (Q6ZXT3 1-312 L118M): T1 sequence (Q6ZXT3 1-312 L84M) with M84L, L118M

[6] = system: tbaqp1-2-3 null cells expressing TbAQP2 WT or Trp/Met mutants; assay type: cell-based, Trypanosoma brucei brucei; details: triple KO AQP1-3
[7] = target: T5, tbaqp1-2-3 null cells expressing TbAQP2 WT or Trp/Met mutants (Trypanosoma brucei brucei, UniProt Q6ZXT3, L84W); assay type: cell-based; details: AQP2 mutant L84W
T5 sequence (Q6ZXT3 1-312 L84W): T1 sequence (Q6ZXT3 1-312 L84M) with M84W

[8] = target: T6, tbaqp1-2-3 null cells expressing TbAQP2 WT or Trp/Met mutants (Trypanosoma brucei brucei, UniProt Q6ZXT3, L218M); assay type: cell-based; details: AQP2 mutant L218M
T6 sequence (Q6ZXT3 1-312 L218M): T1 sequence (Q6ZXT3 1-312 L84M) with M84L, L218M

[9] = target: T7, tbaqp1-2-3 null cells expressing TbAQP2 WT or Trp/Met mutants (Trypanosoma brucei brucei, UniProt Q6ZXT3, L118W); assay type: cell-based; details: AQP2 mutant L118W
T7 sequence (Q6ZXT3 1-312 L118W): T1 sequence (Q6ZXT3 1-312 L84M) with M84L, L118W

## OCC(O)CO [Glycerol]
[1]
  Glycerol uptake, percent of + AQP2 WT, single replicates: 100.00% of + AQP2 WT
[1]; n=3
  Glycerol uptake, percent of + AQP2 WT, AVG: 100.0% of + AQP2 WT
[2]
  Glycerol uptake, percent of + AQP2 WT, single replicates: 71.54% of + AQP2 WT and 78.57% of + AQP2 WT and 85.30% of + AQP2 WT
[2]; exp HK1560
  Glycerol uptake, single replicates: 13178.67 dpm and 16239.50 dpm and 17336.50 dpm
[2]; n=3
  Glycerol uptake, AVG: 15585 dpm
  Glycerol uptake, percent of + AQP2 WT, AVG: 78.5% of + AQP2 WT
[3]
  Glycerol uptake, percent of + AQP2 WT, single replicates: 26.06% of + AQP2 WT and 22.48% of + AQP2 WT and 15.25% of + AQP2 WT
[3]; exp HK1560
  Glycerol uptake, single replicates: 4801.50 dpm and 4646.75 dpm and 3099.50 dpm
[3]; n=3
  Glycerol uptake, AVG: 4183 dpm
  Glycerol uptake, percent of + AQP2 WT, AVG: 21.3% of + AQP2 WT
[4]
  Glycerol uptake, percent of + AQP2 WT, single replicates: 75.79% of + AQP2 WT and 58.22% of + AQP2 WT and 78.07% of + AQP2 WT
[4]; exp HK1560
  Glycerol uptake, single replicates: 13962.75 dpm and 12032 dpm and 15866.50 dpm
[4]; n=3
  Glycerol uptake, AVG: 13954 dpm
  Glycerol uptake, percent of + AQP2 WT, AVG: 70.7% of + AQP2 WT
[5]
  Glycerol uptake, percent of + AQP2 WT, single replicates: 62.48% of + AQP2 WT and 49.85% of + AQP2 WT
[5]; exp HK1560
  Glycerol uptake, single replicates: 11510.33 dpm and 10303.00 dpm
[5]; n=2
  Glycerol uptake, percent of + AQP2 WT, AVG: 56.2% of + AQP2 WT
[6]
  Glycerol uptake, percent of + AQP2 WT, single replicates: 18.67% of + AQP2 WT and 17.85% of + AQP2 WT and 11.96% of + AQP2 WT
[6]; exp HK1560
  Glycerol uptake, single replicates: 3439.75 dpm and 3689.75 dpm and 2430 dpm
[6]; n=3
  Glycerol uptake, AVG: 3187 dpm
  Glycerol uptake, percent of + AQP2 WT, AVG: 16.2% of + AQP2 WT
[7]
  Glycerol uptake, percent of + AQP2 WT, single replicates: 55.50% of + AQP2 WT and 63.99% of + AQP2 WT and 46.33% of + AQP2 WT
[7]; exp HK1560
  Glycerol uptake, single replicates: 10224.8 dpm and 13226.00 dpm and 9416.00 dpm
[7]; n=3
  Glycerol uptake, AVG: 10956 dpm
  Glycerol uptake, percent of + AQP2 WT, AVG: 55.3% of + AQP2 WT
[8]
  Glycerol uptake, percent of + AQP2 WT, single replicates: 85.78% of + AQP2 WT and 59.96% of + AQP2 WT and 82.90% of + AQP2 WT
[8]; exp HK1560
  Glycerol uptake, single replicates: 15802.25 dpm and 12393.00 dpm and 16849.00 dpm
[8]; n=3
  Glycerol uptake, AVG: 15015 dpm
  Glycerol uptake, percent of + AQP2 WT, AVG: 76.2% of + AQP2 WT
[9]
  Glycerol uptake, percent of + AQP2 WT, single replicates: 36.39% of + AQP2 WT and 32.80% of + AQP2 WT and 32.53% of + AQP2 WT
[9]; exp HK1560
  Glycerol uptake, single replicates: 6704.25 dpm and 6779.50 dpm and 6612.25 dpm
[9]; n=3
  Glycerol uptake, AVG: 6699 dpm
  Glycerol uptake, percent of + AQP2 WT, AVG: 33.9% of + AQP2 WT
